Results as given in article PMC12715762, “Discovery of VU6052254: A Novel, Potent M1 Positive Allosteric Modulator” (ACS Chemical Neuroscience, 2025).
Residue numbers refer to the chain shown, from its start. Converted amounts (≈) assume the structure as drawn. “And” between values parts separate entries of the source, which are not always exact repeats. Equal values may be shown once. Read-outs that look alike come from different tables or passages of the source.

Tests used:
human M1 [1] = biological target: T1, human M1 (Homo sapiens, UniProt P11229); assay: M1 PAM calcium mobilization assay (human); type: cell-based; settings: for hM1 PAM AChmax (%): human M1, % ACh max, n = 9
T1 sequence (P11229 1-460): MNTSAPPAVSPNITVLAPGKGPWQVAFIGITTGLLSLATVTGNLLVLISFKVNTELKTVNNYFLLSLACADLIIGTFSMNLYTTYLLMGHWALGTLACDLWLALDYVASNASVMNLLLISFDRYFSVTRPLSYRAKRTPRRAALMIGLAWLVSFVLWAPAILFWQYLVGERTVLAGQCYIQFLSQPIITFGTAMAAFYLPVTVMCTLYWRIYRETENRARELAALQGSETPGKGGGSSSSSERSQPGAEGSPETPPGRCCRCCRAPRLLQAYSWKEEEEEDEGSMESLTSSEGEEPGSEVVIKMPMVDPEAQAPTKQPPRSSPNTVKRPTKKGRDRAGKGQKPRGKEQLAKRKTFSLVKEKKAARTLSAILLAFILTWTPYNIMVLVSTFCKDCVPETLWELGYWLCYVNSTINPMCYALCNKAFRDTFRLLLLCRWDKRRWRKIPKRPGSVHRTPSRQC
Method: (§1) Procedures for Biological Experiments
(§2) Calcium mobilization assays:
(§3) All functional cell-based assays were performed in stable Chinese Hamster Ovary (CHO) cell lines constitutively expressing human M5 or human M1 receptors. For full muscarinic selectivity, CHO cells expressing human M3, human M2 plus Gqi5 or human M4 plus Gqi5 were used. Cells were plated at 15,000 cells per 20 µL per well in black 384-well, TC-treated, clear-bottomed plates (Greiner) in Ham’s F12 medium supplemented with 10% FBS and 20 mM HEPES. Cells were incubated overnight at 37 °C under 5% CO2. The following day, the medium was removed and replaced with 1.2 µM Fluo-4 AM (Invitrogen) in assay buffer (Hank’s Balanced Salt Solution supplemented with 20 mM HEPES and 2.5 mM Probenecid, pH 7.4) and the cells were incubated for 50 minutes at 37 °C under 5% CO2. Dye was then removed and replaced with 20 µL of fresh assay buffer. Test compounds at a 10 mM concentration in DMSO were serially diluted in DMSO (either 1:3 or 1:5 dilution) to create a 10-point concentration series. The DMSO solutions were then diluted in assay buffer resulting in compound solutions at 2-times the final assay concentration with the highest assay concentration of 30 µM. The compound plate, cell plate, and plates containing EC20 and EC80 acetylcholine concentrations were placed in a Hamamatsu FDSS 6000 or 7000 kinetic imaging plate reader equipped to measure Ex480/Em540 fluorescence. Data were collected at 1 frame per second. After 2 seconds of collecting baseline fluorescence, 20 µL of the compound solutions were added to the cell plate. This was followed by the addition of an EC20 concentration of acetylcholine at 142 seconds. […] The fluorescence signal was collected for a total of 300 seconds. […] Data were imported and analyzed in Dotmatics Informatics software. by normalizing all data in the individual kinetic traces to the initial fluorescence read. The magnitude of each agonist addition was then determined and normalized to the average maximum response. […] The IC50 determined using the EC80 of acetylcholine is the value reported. […]

human M1 [2] = biological target: T1, human M1; assay: M1 agonist calcium mobilization assay (human); type: cell-based; settings: for hM1 Agonist AChmax (%): human M1, % ACh max, n = 9
Method: as §1, §2, §3

hM2-5 = assay: muscarinic selectivity calcium mobilization (human M2-5); type: cell-based
Method: as §1, §2
All functional cell-based assays were performed in stable Chinese Hamster Ovary (CHO) cell lines constitutively expressing human M5 or human M1 receptors. For full muscarinic selectivity, CHO cells expressing human M3, human M2 plus Gqi5 or human M4 plus Gqi5 were used. Cells were plated at 15,000 cells per 20 µL per well in black 384-well, TC-treated, clear-bottomed plates (Greiner) in Ham’s F12 medium supplemented with 10% FBS and 20 mM HEPES. Cells were incubated overnight at 37 °C under 5% CO2. […] The compound plate, cell plate, and plates containing EC20 and EC80 acetylcholine concentrations were placed in a Hamamatsu FDSS 6000 or 7000 kinetic imaging plate reader equipped to measure Ex480/Em540 fluorescence. […] After 2 seconds of collecting baseline fluorescence, 20 µL of the compound solutions were added to the cell plate. […] The fluorescence signal was collected for a total of 300 seconds. […] Data were imported and analyzed in Dotmatics Informatics software. by normalizing all data in the individual kinetic traces to the initial fluorescence read. The magnitude of each agonist addition was then determined and normalized to the average maximum response. […] The IC50 determined using the EC80 of acetylcholine is the value reported. […]

rat M1 = biological target: T2, rat M1 (Rattus norvegicus, UniProt P08482); assay: M1 PAM calcium mobilization assay (rat); type: cell-based; settings: for rM1 PAM AChmax (%): rat M1, % ACh max, n = 5; for EC50: rat M1, n = 5, read-out: rM1 PAM EC50
T2 construct: expressed in transfected cells
T2 sequence (P08482 1-460): T1 sequence (P11229 1-460) with A5V, T254S, P309S, R320K, A337G, I413V

rM2-5 = assay: muscarinic selectivity calcium mobilization (rat M2-5); type: cell-based
[3] = kinetic / aqueous solubility; type: physicochemical; settings: for solubility kinetic: aqueous medium, kinetic from dmso stock
[4] = pH 2.2, pH 2.2, aqueous buffer, read-out: Kinetic solubility (pH = 2.2)
[5] = pH 6.8, pH 6.8, aqueous buffer, read-out: Kinetic solubility (pH = 6.8)

| SMILES | hM1 PAM AChmax (%) (human M1 [1]) | EC50 (human M1 [1]; human M1, n = 9, read-out: hM1 PAM EC50) [nM] | hM1 Agonist AChmax (%) (human M1 [2]) | EC50 (human M1 [2]; human M1, n = 9, read-out: hM1 Agonist EC50) [nM] | EC50 (hM2-5) [nM] | rM1 PAM AChmax (%) (rat M1) | EC50 (rat M1) [nM] | EC50 (rM2-5) [nM] | solubility kinetic [3, 4] [µM] | solubility kinetic [3, 5] [µM] | aqueous solubility ([3]; result in words) |
| --- | --- | --- | --- | --- | --- | --- | --- | --- | --- | --- | --- |
| Cn1cc2c(-c3cc(F)c(CN4Cc5ncccc5C4=O)c(F)c3)ccc(C(C)(C)O)c2n1 [compound 7] | 78% and 80% | 59 | 22 | 3640 | > 30000 | 94 | 78 | > 30000 | 81.5 (≈ 36.6 µg/mL) | 67.8 (≈ 30.4 µg/mL) | – |
| Cn1cc2c(-c3cc(F)c(CN4Cc5ncccc5C4=O)c(F)c3)cccc2n1 [compound 1, reference compound] | 71% | – | 20 | – | > 30000 | 81 | 398 | > 30000 | 80.1 (≈ 31.3 µg/mL) | 9.75 (≈ 3.81 µg/mL) | low aqueous solubility |
